Results reported in patent US7939052B2, “Method of measuring the biological activity of an urotensin II receptor” (priority 2005, dated 2011).
Entries after “also recorded” stand apart in the source; their conditions may differ. Residues, ends and D or L forms follow the SMILES beside them.

Assays:
urotensin II receptor [1] = assay: Increase in the redness or skin temperature of the rat ear after administration of the substance; type: in vivo; conditions: data not shown
Procedure: (§1) The examples described herein used conscious rat as the testing animal, although similar results were also observed from anesthetized rats. Other animals can also be utilized following similar procedures. All procedures involving animals were conducted in an animal facility fully accredited by the American Association for Assessment and Accreditation of Laboratory Animal Care (AAALAC) and in accordance with The Guide for the Care and Use of Laboratory Animals (NIH). Protocols were approved by the Internal Animal Care and Use Committee (IACUC). Results are expressed as mean±s.e. mean. Comparisons between groups were assessed using two-sided Student's t-test. P<0.05 was considered significant.
(§2) Unless otherwise indicated, Rat U-II was obtained from SIGMA (U-7507, St Louis, Mo.). Urantide was purchased from Peptide International (PUT-3639-P1, Louisville, Ky.). Experiments were performed with male, Sprague-Dawley rats (Charles River, Wilmington, Mass.), weighing 250-350 g.
(§3) Rats were acclimated at 18° C. for at least 1 hour before U-II administration. The room temperature was kept at 18° C. throughout ear surface temperature measurements. Rat U-II suspended in sterile saline (0.1 ml) at various concentrations was administered to a conscious rat via unilateral […] (i.p.) injection over a period of 5 second. In the serial dose experiment, serial doses of U-II were administered to a conscious rat via subcutaneous (s.c.) routes. The lateral inner ear surface temperature of the rat was measured using a Raytek High Performance Infra-red Thermometer (Raytek Corp., Santa Cruz, Calif.) at different time points.
(§4) Urantide (PUT-3639-P1, Peptide International) was administered or co-administered with U-II (3 μg/kg) to a rat via subcutaneous administration. The lateral inner ear surface temperature of the rat was measured using a Raytek High Performance Infra-red Thermometer at different time points, wherein the time point of Urantide administration or Urantide and U-II co-administration was marked as 0 minute.
(§5) The nitric oxide syntheses inhibitor, N^g nitro-L-arginine methylester (L-NAME), or prostacyclin inhibitor, indomethacin, was administered to the rat alone or in combination with U-II. L-NAME (N5751, Sigma, 100 mg/kg) suspended in saline was administered to a rat via […] (i.p.) administration 4 hour prior to injecting the rat with the U-II. Indomethacin (17378, Sigma, 30 mg/kg) suspended in carboxymethylcellulose was administered to a rat via p.o. (per os, L—by mouth or orally) 2 hours prior to injecting the rat with the U-II. […] The lateral inner ear surface temperature of the rat was measured using a Raytek High Performance Infra-red Thermometer at different time points, wherein the time point of U-II injection was marked as 0 minutes.

urotensin II receptor [2] = assay: Inhibition of U-II induced increase in the redness or skin temperature of the rat ear; type: in vivo
Procedure: as §4
(§6) The nitric oxide syntheses inhibitor, N^g nitro-L-arginine methylester (L-NAME), or prostacyclin inhibitor, indomethacin, was administered to the rat alone or in combination with U-II. L-NAME (N5751, Sigma, 100 mg/kg) suspended in saline was administered to a rat via […] (i.p.) administration 4 hour prior to injecting the rat with the U-II. Indomethacin (17378, Sigma, 30 mg/kg) suspended in carboxymethylcellulose was administered to a rat via p.o. (per os, L—by mouth or orally) 2 hours prior to injecting the rat with the U-II. Dexamethasone (D1756, Sigma, 8 mg/kg) suspended in saline was administered to a rat via i.p. 2 hours prior to injecting the rat with the U-II. After taking a pre-dose or baseline ear surface temperature, 0.1 ml of U-II at various concentrations formulated in sterile normal saline was injection subcutaneously to the mid-scapular region of the rat. The lateral inner ear surface temperature of the rat was measured using a Raytek High Performance Infra-red Thermometer at different time points, wherein the time point of U-II injection was marked as 0 minutes.

[3] = rat, nicotinic acid administration; cited from earlier work
human UT receptor = biological target: T1, human UT receptor (Homo sapiens, UniProt Q9UKP6); conditions: CHO cells over-expressing the human UT receptor; cited from earlier work
T1 construct: host or cells: CHO cells over-expressing the human UT receptor
T1 sequence (Q9UKP6 1-389): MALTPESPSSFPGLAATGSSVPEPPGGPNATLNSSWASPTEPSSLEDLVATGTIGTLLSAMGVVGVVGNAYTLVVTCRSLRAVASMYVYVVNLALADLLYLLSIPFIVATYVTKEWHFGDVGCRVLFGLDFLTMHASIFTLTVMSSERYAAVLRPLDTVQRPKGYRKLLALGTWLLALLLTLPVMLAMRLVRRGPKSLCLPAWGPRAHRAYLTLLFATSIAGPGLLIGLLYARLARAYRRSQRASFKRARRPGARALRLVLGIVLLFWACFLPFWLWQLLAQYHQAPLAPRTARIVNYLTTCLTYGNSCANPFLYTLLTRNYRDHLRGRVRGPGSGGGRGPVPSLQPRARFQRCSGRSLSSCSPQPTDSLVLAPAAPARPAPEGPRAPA

urotensin II receptor [4] = biological target: T2, urotensin II receptor (Rattus norvegicus, UniProt P49684); assay: Increase in the redness or skin temperature of the rat ear after administration of the substance; type: in vivo
T2 construct: from tissue; host or cells: whole animal: male Sprague-Dawley rats (Charles River), in vivo
T2 sequence (P49684 1-386): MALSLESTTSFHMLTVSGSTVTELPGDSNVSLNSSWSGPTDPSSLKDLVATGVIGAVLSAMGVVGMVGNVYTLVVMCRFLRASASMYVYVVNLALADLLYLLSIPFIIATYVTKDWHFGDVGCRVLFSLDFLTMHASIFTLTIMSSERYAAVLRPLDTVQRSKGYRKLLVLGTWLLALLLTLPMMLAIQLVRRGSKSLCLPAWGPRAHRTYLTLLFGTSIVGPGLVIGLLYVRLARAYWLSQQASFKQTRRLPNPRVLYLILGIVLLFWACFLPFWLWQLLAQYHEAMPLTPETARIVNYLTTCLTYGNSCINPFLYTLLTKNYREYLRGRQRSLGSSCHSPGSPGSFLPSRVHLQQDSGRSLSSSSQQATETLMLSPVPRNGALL
Procedure: as §1, §2, §3, §4, §5

[5] = system: panel of receptor/ion channels; assay: Binding to a panel of receptor/ion channels; conditions: data not shown
UT receptor = biological target: T3, UT receptor (Rattus norvegicus, UniProt P49684); conditions: competitive UT receptor antagonist, rat aorta; cited from earlier work
T3 construct: pure UT receptor antagonist in rat aorta vasoconstriction assays; host or cells: rat aorta tissue
T3 sequence (P49684 1-386): T2 sequence (P49684 1-386)

urotensin II receptor [6] = biological target: T2, urotensin II receptor; assay: Inhibition of U-II induced increase in the redness or skin temperature of the rat ear; type: in vivo; conditions: 150 μg/kg co-administered s.c. with U-II 3 μg/kg
Procedure: as §4, §6

COC(=O)[C@@H](N)CCCNC(=N)N[N+](=O)[O-] [L-NAME, N^g nitro-L-arginine methylester]
ear flush or ear surface temperature change, substance alone (urotensin II receptor [1]; 100 mg/kg i.p.): caused no ear flush or ear surface temperature change
effect on U-II induced ear flush or increase of ear temperature (urotensin II receptor [2]; 100 mg/kg i.p. 4 hour prior to U-II 3 μg/kg s.c., 100 mg/kg): blocked; also recorded: markedly inhibited

COc1ccc2c(c1)c(CC(=O)O)c(C)n2C(=O)c1ccc(Cl)cc1 [indomethacin]
ear flush or ear surface temperature change, substance alone (urotensin II receptor [1]; 30 mg/kg p.o.): caused no ear flush or ear surface temperature change
effect on U-II induced ear flush or increase of ear temperature (urotensin II receptor [2]; 30 mg/kg p.o. 2 hours prior to U-II 3 μg/kg s.c., 30 mg/kg): blocked
effect on U-II induced ear flush or increase of ear temperature (urotensin II receptor [2]; 30 mg/kg p.o. 2 hours prior to U-II 3 μg/kg s.c., listed as Indomethacin, 30 mg/kg): abolished

O=C(O)c1cccnc1 [nicotinic acid]
increase of the ear temperature [3]: less than 1.5 °C

CC(C)[C@H](NC(=O)[C@@H]1CSSC(C)(C)[C@H](NC(=O)[C@@H](N)CC(=O)O)C(=O)N[C@@H](Cc2ccccc2)C(=O)N[C@H](Cc2c[nH]c3ccccc23)C(=O)N[C@@H](CCCN)C(=O)N[C@@H](Cc2ccc(O)cc2)C(=O)N1)C(=O)O [urantide] (HELM PEPTIDE1{D.[Pen].F.[dW].[Orn].Y.C.V}$PEPTIDE1,PEPTIDE1,2:R3-7:R3$$$V2.0)
activity at human UT receptor (human UT receptor): potent U-II agonist
ear flush or ear surface temperature change, substance alone (urotensin II receptor [4]; 150 μg/kg s.c.): caused no ear flush or ear surface temperature changes
binding activity to proteins within a panel of receptor/ion channels [5]: minimal binding activity
pA2 (UT receptor): 8.3
effect on U-II induced ear flush or increase of ear temperature (urotensin II receptor [6]): blocked

URP: U-II-related peptide, SEQ ID NO: 10, ACFWKYCV, intramolecular disulfide bond (PUT-4408-V, Peptide International)
redness or skin temperature of the rat after administration (urotensin II receptor [4]; URP 100 μg/kg s.c.): induced an increase in skin temperature; also recorded: induced an increase in the redness or skin temperature
